# Tested on: Autoxidation von Linolensäure
# Test: Antioxidant test: inhibition of hydroperoxide formation in radical-chain autoxidation of linoleic acid (after Stocker et al.), AIBN as radical starter, UV/Vis at 234 nm or HPLC
# Type: biochemical
# Details: for IC50: Autoxidation of Linolensäure in the presence of air, b23 room temperature (37°C, 0,15 M Linolsäure, 2 mM AIBN, 6 % (v/v) Methanol), read-out: Konzentration c0,5 (Rate der Peroxidbildung auf die Hälfte reduziert)
# Text: Stocker et al. verwendeten zur Quantifizierung der antioxidativen Wirkung des Hämabbauproduktes Bilirubin ein einfaches Testsystem. Die essentielle Fettsäure Linolsäure, eine zweifach ungesättigte Fettsäure, ist sehr empfindlich gegenüber einer Oxidation durch freie Radikale. Derartige Oxidationen können in Form von Kettenreaktionen z.B. in Zellmembranen großflächige Schäden herbeiführen. In vitro wurde dieser "oxidative Stress" durch den Einsatz einer Azoverbindung (Radikalstarter) simuliert. Derartige Azoverbindungen bilden ständig, abhängig von der Temperatur durch Abspaltung von Stickstoff (N2) Kohlenstoffradikale, die wiederum mit den ungesättigten Bindungen der Fettsäuren reagieren können. Es bilden sich Fettsäureradikale die ihrerseits wiederum mit Sauerstoff reagieren. Das führt zur Bildung von Fettsäurehydroperoxiden, die wegen ihrer besonderen Absorptionseigenschaften in UV-Bereich (234 nm) spektroskopisch nachweisbar sind. Abhängig von der Konzentration des Radikalbildners steigt also mit der Zeit die Anzahl der Fettsäurehydroperoxidmoleküle an. Setzt man einen antioxidativ wirksamen Stoff zu, können Radikale abgefangen werden, und die Bildung der Hydroperoxide wird verlangsamt.
# Das Ergebnis dieser Untersuchungen zeigt die Figur 8, in der die zeitliche Abhängigkeit der Zunahme oxidierter Linolsäure bei unterschiedlichen Konzentrationen der Antioxidantien Bilirubin bzw. NCC-1 aufgetragen ist.
# Die Aktivität des natürlichen und weniger polaren Cj-YCC-2 als Antioxidans wurde in Lösung mittels Standardexperimenten, die unter anderem auch in der WO 2007/030848 beschrieben sind, getestet unter Verwendung der Autoxidation von Linolensäure in der Anwesenheit von Luft und bei Raumtemperatur. Das gelbe Tetrapyrrol Cj-YCC-2 inhibierte die Erscheinung von Hydroperoxiden aus einer Radikal-Ketten-Autoxidation von Linolensäure in der Anwesenheit von Luft (siehe Fig. 8). […]
SMILES,"Erscheinung von Hydroperoxiden aus einer Radikal-Ketten-Autoxidation von Linolensäure (in the presence of air, Fig. 8)",IC50 [µM]
"C=CC1=C(C)/C(=C/c2[nH]c([C@@H]3c4[nH]c(Cc5[nH]c(C=O)c(C)c5CCO)c(C)c4C(=O)[C@H]3C(=O)OC)c(CCC(=O)O)c2C)NC1=O [Cj-YCC-2, (13^2S,15R,20Z) - 3^1,3^2-Didehydro - 4,5,10,15 - (22,24H) - hexahydro - 13^2 - methoxycarbonyl - 4,5 - seco - 4,5 - dioxo - phytoporphyrinat]",inhibierte,
"C=CC1=C(C)/C(=C\c2[nH]c([C@@H]3c4[nH]c(Cc5[nH]c(C=O)c(C)c5CCO)c(C)c4C(=O)[C@H]3C(=O)OC)c(CCC(=O)O)c2C)NC1=O [Cj-YCC-1, (13^2S,15R,20E) - 3',3^2-Didehydro - 4,5,10,15 - (22,24H) - hexahydro - 13^2 - methoxycarbonyl - 4,5 - seco - 4,5 - dioxo - phytoporphyrinat]",,~10
"C=CC1=C(C)C(Cc2[nH]c(C3c4[nH]c(Cc5[nH]c(C=O)c(C)c5CCO)c(C)c4C(=O)C3C(=O)OC)c(CCC(=O)O)c2C)NC1=O (stereo not drawn) [Cj-NCC-1, reference compound]",,~100
